Assay [1] deals with T1, human BRD4 bromodomain II (Homo sapiens, UniProt O60885).
T1 construct: human BRD4 bromodomain II [based on Genbank NM_058243, residues 349-460]; host or cells: E. coli
Kind of assay: Bromodomain binding assay (AlphaScreen), BRD4 BDII. Particulars: AlphaScreen assay, Table C2; read-out: BRD4 BDII IC50. The method, boiled down:
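Read-out is AlphaScreen signal (ex 680 nm, em 520-620 nm) from streptavidin donor beads on a biotinylated acetylated histone H4 (aa 1-21) peptide and nickel acceptor beads on the His6-tagged bromodomain. IC50 values come from curve fits of percentage peptide binding against compound concentration.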
For orientation: Alpha assays give light when donor and acceptor beads are brought close together.

Assay [2] relates to human SKM-1 acute myeloid leukemia cells. The assay can be described thus: SKM-1 antiproliferation cell-based assay (ATPlite). The note with it: Homo sapiens, SKM-1, 96 h, SKM-1 antiproliferation assay, 4 days, Table C2. The method, boiled down: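 Log-phase cells in RPMI 1640/15% FBS were seeded at 34722 cells/mL and exposed for 4 days to nine-concentration DMSO serial dilutions in triplicate. Viability was read as ATP luminescence (ATPlite 1step), and IC50 values came from variable-slope non-linear regression.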
Background: In ATP-based viability assays light output follows the ATP content of the culture.

Structures are written as SMILES.

`Cn1ccn(-c2ccc(-c3cc(F)cc(-c4cc(-c5cn[nH]c5)nc(N5CCNCC5)c4)c3O)cc2Cl)c1=O` [Example 552, 1-(3-chloro-5′-fluoro-2′-hydroxy-3′-(2-(piperazin-1-yl)-6-(1H-pyrazol-4-yl)pyridin-4-yl)-[1,1′-biphenyl]-4-yl)-3-methyl-1H-imidazol-2(3H)-one]: the half-inhibitory concentration (IC50) in assay [1] lay within 0.01 to 1 nM. For the same compound, in assay [2], the GI50 was 0.3 to 30 nM.

With `Cn1ccn(-c2ccc(-c3cc(F)cc(-c4cc(-c5ccn[nH]5)nc(N5CCNCC5)c4)c3O)cc2Cl)c1=O` [Example 553, 1-(3-chloro-5′-fluoro-2′-hydroxy-3′-(2-(piperazin-1-yl)-6-(1H-pyrazol-5-yl)pyridin-4-yl)-[1,1′-biphenyl]-4-yl)-3-methyl-1H-imidazol-2(3H)-one], in assay [1], the IC50 was in the range of 1 to 10 nM. For the same compound, in assay [2], the GI50 was 0.3 to 30 nM.

With `Cn1ccn(-c2ccc(-c3cc(F)cc(-c4ccnc(N5CC6CNC(C6)C5)c4)c3O)cc2Cl)c1=O` (stereo not drawn) [Example 554, 1-(3′-(2-(3,6-diazabicyclo[3.2.1]octan-3-yl)pyridin-4-yl)-3-chloro-5′-fluoro-2′-hydroxy-[1,1′-biphenyl]-4-yl)-3-methyl-1H-imidazol-2(3H)-one], in assay [1], the IC50 was 1 to 10 nM. Moreover, the GI50 in assay [2] is 0.3 to 30 nM.

For `C[C@@H]1CN(c2cc(-c3cc(F)cc(-c4ccc(-n5ccn(C)c5=O)c(Cl)c4)c3O)ccn2)C[C@H](C)N1` [Example 555, 1-(3-chloro-3′-(2-((3R,5S)-3,5-dimethylpiperazin-1-yl)pyridin-4-yl)-5′-fluoro-2′-hydroxy-[1,1′-biphenyl]-4-yl)-3-methyl-1H-imidazol-2(3H)-one], the IC50 in assay [1] lay in the range of 1 to 10 nM. Further, in assay [2], the GI50 is 0.3 to 30 nM.

Regarding `Cn1ccn(-c2ccc(-c3cc(F)cc(-c4ccnc(N5CCN[C@H](CO)C5)c4)c3O)cc2Cl)c1=O` [Example 556, (S)-1-(3-chloro-5′-fluoro-2′-hydroxy-3′-(2-(3-(hydroxymethyl)piperazin-1-yl)pyridin-4-yl)-[1,1′-biphenyl]-4-yl)-3-methyl-1H-imidazol-2(3H)-one], the IC50 in assay [1] was 1 to 10 nM. Also, the 50% growth inhibitory concentration (GI50) in assay [2] lay within 0.3 to 30 nM.

Regarding `Cc1cc(-c2ccc(-n3ccn(C)c3=O)c(Cl)c2)c(O)c(-c2cc(N3CCNCC3)c3cc[nH]c3c2)c1` [Example 557, 1-(3-chloro-2′-hydroxy-5′-methyl-3′-(4-(piperazin-1-yl)-1H-indol-6-yl)-[1,1′-biphenyl]-4-yl)-3-methyl-1H-imidazol-2(3H)-one], the IC50 in assay [1] was 1 to 10 nM. The same compound gave a GI50 in assay [2] of 0.3 to 30 nM.

As to `Cn1ccn(-c2ccc(-c3cc(F)cc(-c4cc(N5CC[C@H](N)C5)c5cn[nH]c5c4)c3O)cc2Cl)c1=O` [Example 558, (S)-1-(3′-(4-(3-aminopyrrolidin-1-yl)-1H-indazol-6-yl)-3-chloro-5′-fluoro-2′-hydroxy-[1,1′-biphenyl]-4-yl)-3-methyl-1H-imidazol-2(3H)-one], the IC50 in assay [1] fell in the range of 1 to 10 nM. The GI50 in assay [2] fell in the range of 0.3 to 30 nM.

In the case of `Cn1ccn(-c2ccc(-c3cc(F)cc(-c4ccnc(N5CCNC6(CC6)C5)c4)c3O)cc2Cl)c1=O` [Example 559, 1-(3′-(2-(4,7-diazaspiro[2.5]octan-7-yl)pyridin-4-yl)-3-chloro-5′-fluoro-2′-hydroxy-[1,1′-biphenyl]-4-yl)-3-methyl-1H-imidazol-2(3H)-one], in assay [1], the IC50 fell in the range of 0.01 to 1 nM. The GI50 in assay [2] was 30 to 300 nM.

For the compound `Cn1ccn(-c2ccc(-c3cc(F)cc(-c4ccnc(N5CCN6C(=O)OC[C@@H]6C5)c4)c3O)cc2Cl)c1=O` [Example 560, (S)-7-(4-(3′-chloro-5-fluoro-2-hydroxy-4′-(3-methyl-2-oxo-2,3-dihydro-1H-imidazol-1-yl)-[1,1′-biphenyl]-3-yl)pyridin-2-yl)tetrahydro-1H-oxazolo[3,4-a]pyrazin-3(5H)-one], the IC50 in assay [1] fell in the range of 1 to 10 nM. Also, in assay [2], the GI50 was in the range of 30 to 300 nM.

On to `Cn1ccn(-c2ccc(-c3cc(F)cc(-c4cncc(N5CCNC(C)(C)C5)c4)c3O)cc2Cl)c1=O` [Example 561, 1-(3-chloro-3′-(5-(3,3-dimethylpiperazin-1-yl)pyridin-3-yl)-5′-fluoro-2′-hydroxy-[1,1′-biphenyl]-4-yl)-3-methyl-1H-imidazol-2(3H)-one], for which, in assay [1], the IC50 was in the range of 0.01 to 1 nM. The GI50 in assay [2] was in the range of 0.3 to 30 nM.

Consider `Cc1cc(-c2ccc(-n3ccn(C)c3=O)c(Cl)c2)c(O)c(-c2cc(N3CCNCC3)c3nccnc3c2)c1` [Example 562, 1-(3-chloro-2′-hydroxy-5′-methyl-3′-(8-(piperazin-1-yl)quinoxalin-6-yl)-[1,1′-biphenyl]-4-yl)-3-methyl-1H-imidazol-2(3H)-one], for which the IC50 in assay [1] was 0.01 to 1 nM. This compound also came in with a GI50 in assay [2] of 0.3 to 30 nM.

Regarding `Cn1ccn(-c2ccc(-c3cc(F)cc(-c4ccnc(N5CCNC(C)(C)C5)c4)c3O)cc2Cl)c1=O` [Example 563, 1-(3-chloro-3′-(2-(3,3-dimethylpiperazin-1-yl)pyridin-4-yl)-5′-fluoro-2′-hydroxy-[1,1′-biphenyl]-4-yl)-3-methyl-1H-imidazol-2(3H)-one], the IC50 in assay [1] fell in the range of 0.01 to 1 nM. For the same compound, the 50% growth inhibitory concentration (GI50) in assay [2] was in the range of 0.3 to 30 nM.

In the case of `Cc1cc(-c2ccc(-n3ccn(C)c3=O)c(Cl)c2)c(O)c(-c2cc(N3CC[C@H](N)C3)c3nc[nH]c3c2)c1` [Example 564], in assay [1], the half-maximal inhibitory concentration (IC50) is 0.01 to 1 nM. This compound also returned a GI50 in assay [2] of 0.3 to 30 nM.

Consider `Cc1cc(-c2ccc(-n3ccn(C)c3=O)c(Cl)c2)c(O)c(-c2cc(N3CCNCC3)c3nn[nH]c3c2)c1` [Example 565], for which the IC50 in assay [1] lay in the range of 0.01 to 1 nM. Moreover, the 50% growth inhibitory concentration (GI50) in assay [2] is 0.3 to 30 nM.

On to `Cc1cc(-c2cc(-c3cn[nH]c3)nc(N3CCNCC3)c2)c(O)c(-c2ccc(-n3ccn(C)c3=O)c(Cl)c2)c1` [Example 566], for which the half-inhibitory concentration (IC50) in assay [1] lay in the range of 0.01 to 1 nM. The compound further showed a GI50 in assay [2] of 0.3 to 30 nM.

For the compound `Cc1cc(-c2ccc(-n3ccn(C)c3=O)c(Cl)c2)c(O)c(-c2cc(N3CCN[C@H](C)C3)c3cc[nH]c3c2)c1` [Example 567], the IC50 in assay [1] is 1 to 10 nM. In addition, the GI50 in assay [2] lay within 0.3 to 30 nM.

Take `Cn1ccn(-c2ccc(-c3cc(F)cc(-c4cc(-c5ccn[nH]5)cc(N5CCNCC5)c4)c3O)cc2Cl)c1=O` [Example 568]: the concentration for half-maximal inhibition (IC50) in assay [1] is 0.01 to 1 nM. Further, in assay [2], the concentration for 50% growth inhibition (GI50) was in the range of 0.3 to 30 nM.

As for `Cc1cc(-c2cc(-c3ccn[nH]3)cc(N3CCNCC3)c2)c(O)c(-c2ccc(-n3ccn(C)c3=O)c(Cl)c2)c1` [Example 569], in assay [1], the IC50 fell in the range of 1 to 10 nM. In addition, the GI50 in assay [2] is 30 to 300 nM.

Turning to `Cc1cc(-c2cc(-c3cn[nH]c3)cc(N3CCNCC3)c2)c(O)c(-c2ccc(-n3ccn(C)c3=O)c(Cl)c2)c1` [Example 570], in assay [1], the IC50 lay in the range of 1 to 10 nM. Moreover, the GI50 in assay [2] lay in the range of 0.3 to 30 nM.

Turning to `Cn1ccn(-c2ccc(-c3cc(F)cc(-c4cc(-c5cn[nH]c5)cc(N5CCNCC5)c4)c3O)cc2Cl)c1=O` [Example 571], the IC50 in assay [1] was in the range of 1 to 10 nM. In assay [2], this compound had a GI50 of 0.3 to 30 nM.

For `Cn1ccn(-c2ccc(-c3cc(F)cc(-c4cncc(N5CC6CNC(C6)C5)c4)c3O)cc2Cl)c1=O` (stereo not drawn) [Example 572], the IC50 in assay [1] is 0.01 to 1 nM. Moreover, the GI50 in assay [2] lay in the range of 0.3 to 30 nM.

For `Cn1ccn(-c2ccc(-c3cc(F)cc(-c4cc(N5CC6CCC(C5)N6)c5cn[nH]c5c4)c3O)cc2Cl)c1=O` [Example 573], in assay [1], the IC50 was in the range of 0.01 to 1 nM. Besides, the GI50 in assay [2] is 0.3 to 30 nM.

Regarding `Cc1cc(-c2ccc(-n3ccn(C)c3=O)c(Cl)c2)c(O)c(-c2cc(N3CCN[C@H](C)C3)c3nccnc3c2)c1` [Example 574], the IC50 in assay [1] lay in the range of 0.01 to 1 nM. Besides, the GI50 in assay [2] lay within 0.3 to 30 nM.

Take `Cc1cc(-c2ccc(-n3ccn(C)c3=O)c(Cl)c2)c(O)c(-c2cc(N3CC[C@H](N)C3)c3nccnc3c2)c1` [Example 575]: the IC50 in assay [1] was in the range of 0.01 to 1 nM. This compound also showed a GI50 in assay [2] of 0.3 to 30 nM.

Consider `C[C@@H]1CN(c2cc(-c3cc(F)cc(-c4ccc(-n5ccn(C)c5=O)c(Cl)c4)c3O)cc3c2ncn3C)CCN1` [Example 576], for which the IC50 in assay [1] lay in the range of 0.01 to 1 nM. Also, in assay [2], the GI50 lay in the range of 0.3 to 30 nM.

Regarding `C[C@@H]1CN(c2cc(-c3cc(F)cc(-c4ccc(-n5ccn(C)c5=O)c(Cl)c4)c3O)cc3[nH]ncc23)C[C@H](C)N1` [Example 577], the IC50 in assay [1] is 0.01 to 1 nM. Also, the GI50 in assay [2] lay in the range of 0.3 to 30 nM.

For `Cn1ccn(-c2ccc(-c3cc(F)cc(-c4cc(N5CCC[C@H](N)C5)c5cn[nH]c5c4)c3O)cc2Cl)c1=O` [Example 578], the concentration for half-maximal inhibition (IC50) in assay [1] fell in the range of 0.01 to 1 nM. This compound also yielded a GI50 in assay [2] of 0.3 to 30 nM.

Regarding `C[C@@H]1CN(c2cc(-c3cc(F)cc(-c4ccc(-n5ccn(C)c5=O)c(Cl)c4)c3O)cc3c2ccn3C)CCN1` [Example 579, (R)-1-(3-chloro-5′-fluoro-2′-hydroxy-3′-(1-methyl-4-(3-methylpiperazin-1-yl)-1H-indol-6-yl)-[1,1′-biphenyl]-4-yl)-3-methyl-1H-imdazol-2(3H)-one], the IC50 in assay [1] lay in the range of 0.01 to 1 nM. The compound further had a GI50 in assay [2] of 0.3 to 30 nM.

As for `C[C@@H]1CN(c2cc(-c3cc(F)cc(-c4ccc(-n5ccn(C)c5=O)c(Cl)c4)c3O)cc3c2cnn3C)CCN1` [Example 580], the IC50 in assay [1] was 0.01 to 1 nM. In addition, the GI50 in assay [2] was 0.3 to 30 nM.

`Cn1ccn(-c2ccc(-c3cc(F)cc(-c4cc(N5CCC(N)CC5)c5cn[nH]c5c4)c3O)cc2Cl)c1=O` [Example 581]: in assay [1], the IC50 fell in the range of 0.01 to 1 nM. In assay [2], this compound returned a GI50 of 30 to 300 nM.

Regarding `CCN1CCN(c2cc(-c3cc(F)cc(-c4ccc(-n5ccn(C)c5=O)c(Cl)c4)c3O)cc3[nH]ncc23)CC1` [Example 582], in assay [1], the IC50 is 0.01 to 1 nM. Further, in assay [2], the GI50 lay within 0.3 to 30 nM.

Turning to `CN[C@H]1CCN(c2cc(-c3cc(F)cc(-c4ccc(-n5ccn(C)c5=O)c(Cl)c4)c3O)cc3[nH]ncc23)C1` [Example 583], the half-inhibitory concentration (IC50) in assay [1] lay within 1 to 10 nM. Also, the GI50 in assay [2] lay within 0.3 to 30 nM.

For `C[C@@H]1CN(c2cc(-c3cc(F)cc(-c4ccc(-n5ccn(C)c5=O)c(Cl)c4)c3O)cn3ccnc23)CCN1` [Example 584], the half-maximal inhibitory concentration (IC50) in assay [1] lay in the range of 0.01 to 1 nM. In assay [2], this compound yielded a GI50 of 0.3 to 30 nM.

Broadly, the IC50 is the point on the concentration scale where inhibition reaches its midpoint. The term GI50 denotes the concentration giving 50% growth inhibition. A high value points to lower sensitivity of the cells.

The values above are taken from patent US20250179059A1 (The Regents of the University of California, priority 2021, published 2025).
